Data set [1] deals with mouse small intestinal UPase enzyme (Mus musculus, UniProt P52624). The data set can be described thus: UPase inhibition in mouse small intestinal tissue homogenate (HPLC of uracil). In kind it is biochemical. How it is done: A range of TK-112690 doses were studied for the their ability to prevent metabolic breakdown of uridine through the in vitro inhibition of mouse and human small intestinal UPase enzyme. UPase activity was determined by HPLC analysis using UV detection of uracil concentration (UPase catabolizes uridine into uracil and ribose-1-phosphate). The UPase enzyme material was prepared from homogenized mouse and human being small intestinal tissue. TK-112690 was dissolved in water (50 mg/ml) and analyzed for UPase inhibition in aqueous solution containing 5 mM uridine, 0.01 M Tris, 0.01 M phosphate, 1 mM EDTA, and 1 mM DTT. Reactions were performed at 37° C. at pH of 7.3.
Chain of mouse small intestinal UPase enzyme (P52624 whole entry, looked up): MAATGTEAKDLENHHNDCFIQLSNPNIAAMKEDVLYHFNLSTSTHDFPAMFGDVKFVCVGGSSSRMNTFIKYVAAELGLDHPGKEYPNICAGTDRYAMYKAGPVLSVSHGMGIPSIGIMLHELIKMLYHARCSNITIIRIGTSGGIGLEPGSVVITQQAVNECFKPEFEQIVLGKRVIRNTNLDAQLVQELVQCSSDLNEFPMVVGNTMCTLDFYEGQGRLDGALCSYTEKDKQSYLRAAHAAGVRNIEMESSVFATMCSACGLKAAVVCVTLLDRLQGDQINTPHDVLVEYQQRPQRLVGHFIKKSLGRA
The aim of this study was to evaluate TK-112690 […] as an inhibitor of uridine phosphorylase (UPase) enzyme activity. The range of TK-112690 doses studied for ability to prevent metabolic breakdown of uridine, through the in vitro inhibition of mouse and human small intestinal UPase enzyme, was 0, 0.1, 0.5, 1, 5, 10, 50, 100, 500, 1000, 5000 and 10000 μM). Detection of UPase activity was determined by HPLC analysis using UV detection of uracil concentration (UPase catabolizes uridine into uracil and ribose-1-phosphate).
The UPase enzyme material was prepared from homogenized mouse and human being small intestinal tissue. TK-112690 was dissolved in water (50 mg/ml) and analyzed for UPase inhibition in aqueous solution containing 5 mM uridine, 0.01 M Tris, 0.01 M phosphate, 1 mM EDTA, and 1 mM DTT. Reactions were performed at 37° C. at pH of 7.3.
TK-11260 inhibition of mouse and human UPase was analyzed by reverse phase HPLC using UV detection. HPLC analysis was performed at ambient temperature with a Water 2695 Alliance system equipped with a C18 ECONOSIL 5 U ALLtech column. 20 μl of UPase reaction samples were auto-injected onto column. Mobile phase consisted of water eluting for first 2.5 ml and acetonitrile gradient to 100% in 12.5 ml (flow rate 0.5 ml/min). The outlet fluent was monitored by UV absorption in the range of 240-320 nm. UPase enzymatic activity was based on the AUC of the uracil peaks.

Another data set deals with Drosophila melanogaster. Description: Fly Study I: protection from MTX-induced lethality. In kind it is in vivo. The following applies: with MTX 0.4 mg; TK-112690 0.005 to 0.1 mg. How it is done:
In this study, Drosophila melanogaster eggs (50 eggs per vial) were treated with either 0.005 mg TK-112690+0.4 mg MTX (Group 1), 0.01 mg TK-112690+0.4 mg MTX (Group 2), 0.04 mg TK-112690+0.4 mg MTX (Group 3), 0.1 mg TK-112690+0.4 mg MTX (Group 4), 0.4 mg MTX alone (Group 5) or saline blank (Group 6). Two vials of eggs for each dose group were evaluated for viability (viable flies plus pupae).
The efficacy of cancer chemotherapy can be improved if agents are available to reduce the adverse events associated with treatment with cytotoxic agents. To this end, Drosophila melanogaster (commonly know as the fruit fly) is an ideal organism to screen chemical compounds for such side-effect-reducing agents. This study is aimed at finding a dose of a 2,2′-anhydropyrimidine test article that protects against MTX-induced lethality in insects.
Increasing amounts of a 2,2′-anhydropyrimidine test article (typically 0.03 to 0.1 mg) are mixed in an aqueous solution with 0.3 (or 0.4) mg MTX. Four milliliters (mL) of a 2,2′-anhydropyrimidine test article+MTX solutions are added to an appropriate amount of instant fly medium. Fruit fly eggs are added to a 2,2′-anhydropyrimidine test article+MTX treated medium and incubated for up to 31 days. After the 31 day incubation, each assay is scored by the number of mature fly and pupae per vial.
The assays are set up in clear sterile polystyrene narrow diameter vials from Applied Scientific (Hampton, N.H.). Vials are stored in trays and incubated in a darkened 25° C. incubator.
Reagents and materials used are: 50 mg/mL MTX in H2O (pH 8), 20 mg/mL of the 2,2′-anhydropyrimidine test article in H2O, water, sterile polystyrene narrow diameter vials from Applied Scientific, Instant Drosophila Food Medium, Oregon-R Drosophila melanogaster, 25° C. incubator, and 15 mL polystyrene conical tubes
Each assay is performed in a separate fly vial. […] Pre-measured amounts of instant drosophila medium are added to each assay to achieve optimal hydration level. […] Assays are scored by the number of dead pupae or adult flies per vial.

The next data set has as its system CCRF-CEM cells. Description: Cell Culture Study I: MTX cytotoxicity, alamarBlue. In kind it is cell-based, human. The note with it: 72 hours. How it is done: In this study, CCRF-CEM cells purchased from ATCC were cultured and then 12 tubes containing approximately 10^6 cells each treated for 72 hours with media (Group1), MTX 0.03 μM (Group2), MTX+Leucovorin 1 μM (Group3), MTX+Leucovorin 10 μM (Group4), MTX+Leucovorin 100 μM (Group5), MTX+TK-112690 1 μM (Group6), MTX+TK-112690 10 μM (Group7) and MTX+TK-112690 100 μM (Group8). […] Viability was measured as percent reduction of alamarBlue absorbance.
The tumor cell line CCR-CEM (human T-cell acute lymphoblastic leukemia) is obtained from American Type Culture Collection (CRL-1593.2) and cultured in accordance with the product information sheet with the following exceptions: 55.3 cm^2 Petri dishes are used instead of 75 cm^2 culture flasks, and 1% penicillin-streptomycin solution (HyClone SV30010) and 1% GlutaMAX™ (Gibco 35050) are added to the culture medium.
TK-112690, the representative 2,2′-anhydropyrimidine test article, is dissolved in 40% DMSO, sterile filtered then diluted with sterile distilled water to obtain initial working solutions of 10, 100 and 1000 μM. In testing, a 100 fold dilution is made in culture media to give final assay concentrations of 0.1, 1.0 and 10.0 μM. MTX (SAFC Biosciences M8407) is dissolved in sterile distilled water and 5 N NaOH then sterile filtered. The final pH of the stock solution is 7.8 and working solutions are made with sterile distilled water for final assay concentrations of 30, 3.0, 0.3, 0.03 and 0.003 μM. Leucovorin (Sigma F-7878) is dissolved in sterile distilled water, sterile filtered and diluted with sterile distilled water for final assay concentrations of 0.1, 1.0 and 10.0 μM.
Aliquots of 100 μL of cell suspension are plated in 96 well microtiter plates (Corning costar 3595) and placed in an atmosphere of 5% CO2 at 37° C. (Fisher Scientific Isotemp 3500 CO2 Incubator). After 24 hours, 100 μL of growth medium [RPMI-1640 w/L-glutamine (Cambrex 12-702Q) fortified with sodium pyruvate (HyClone SH30239.01), fetal bovine serum (SAFC Biosciences 12107C) and HEPES buffer (Gibco 15630)] and 2 μL of test solution or vehicle are added respectively per well and the plates incubated for an additional 72 hour incubation. MTX is evaluated at concentrations of 0.003, 0.03, 0.30 and 3.0 μM alone or in combination with either a 2,2′-anhydropyrimidine test article or Leucovorin at concentrations of 0.1, 1.0, 10.0 μM. At the end of incubation, the efficacy of anti-cell proliferation is determined by optical absorbance at λ=570 and 600 nm [Spectramax 250 (Molecular Devices)] in accordance with the standard alamarBlue™ (Biosource) protocol.
Group 1 is the cell control (media treated). Group 2 corresponds to cells treated with 0.03 μM MTX. Group 3 are cells treated with 1.0 μM Leucovorin. Group 4 are cells treated with 0.1 μM Leucovorin. Group 5 are cells treated with 10 μM TK-112690. Group 6 are cells treated with MTX+10 μM TK-112690. Group 7 are cells treated with MTX+1.0 μM TK-112690. Group 8 MTX+0.1 μM TK-112690.
For orientation: The colour change of resazurin is a common sign of viable cells or microbes.

The mark [2] stands for this setting: Table 3, murine UPase, test method of Experiment IX, read-out: UPase IC50.

Structures are written as SMILES. Like-named read-outs stand apart in the source and are kept apart here.

Regarding `Cc1cn2c(nc1=O)O[C@H]1C(O)[C@@H](CF)O[C@H]12` (some centres unmarked) [TK-000015], the IC50 in data set [1] (setting [2]) is greater than 100 µM. In the case of `CC(=N)OCc1cn2c(nc1=O)O[C@H]1[C@H](O)[C@@H](CO)O[C@H]12` [TK-000010], in data set [1] (setting [2]), the IC50 is greater than 100 µM. Take `O=c1nc2n(cc1NCc1ccccc1)[C@@H]1O[C@H](CO)[C@@H](O)[C@@H]1O2` [TK-000006]: in data set [1] (setting [2]), the IC50 was less than 100 µM. Same read-out and setting: with `Cc1cn2c(nc1=O)O[C@H]1[C@H](O)[C@@H](CN=[N+]=[N-])O[C@H]12` [TK-000011] the figure was greater than 100 µM.

Consider `O=c1nc2n(cc1COCc1ccccc1)[C@@H]1O[C@H](CO)[C@@H](O)[C@@H]1O2` [TK-000008], for which the IC50 in data set [1] (setting [2]) was less than 100 µM. Regarding `COCc1cn2c(nc1=O)O[C@H]1[C@H](O)[C@@H](CO)O[C@H]12` [TK-000009], in the data set on Drosophila melanogaster, the “protection against MTX-induced lethality in the Fly model” value is on record as “active”. Moreover, the IC50 in data set [1] (setting [2]) was less than 100 µM. Consider `Cc1ccc(SCc2cn3c(nc2=O)O[C@H]2C(O)[C@@H](CO)O[C@H]23)cc1` (some centres unmarked) [TK-000016], for which, in data set [1] (5 mM uridine, 37° C., pH 7.3, read-out: IC50, mouse small intestinal (murine) UPase), the IC50 is less than 100 µM. As to `Nc1nc2c(c(=O)[nH]1)N(C=O)C(CNc1ccc(C(=O)N[C@@H](CCC(=O)O)C(=O)O)cc1)CN2` (some centres unmarked) [Leucovorin], the “effect on MTX cytotoxicity (viability, alamarBlue)” value with CCRF-CEM cells (combined with MTX 0.03 μM) is reported as “statistically different than Group 2”. Moreover, in the data set on CCRF-CEM cells (without MTX), the “viability, agent alone vs control” value is listed as “not statistically different than control”. Take `CCOCc1cn2c(nc1=O)O[C@H]1[C@H](O)[C@@H](CO)O[C@H]12` [TK-000007]: the IC50 in data set [1] (setting [2]) is less than 100 µM.

The IC50 is the concentration that gives 50% inhibition.

Source of the values: patent publication USRE48253E1, “Methotrexate adjuvants to reduce toxicity and methods for using the same” (Tosk, Inc., priority 2008, dated 2020).
